This passage reports IC50 results from publication PMC2799658, “A Multidimensional Strategy to Detect Polypharmacological Targets in the Absence of Structural and Sequence Homology” (PLoS Computational Biology, 2010).

Molecules are shown by their SMILES.

Experiment [1] deals with T1, H. sapiens mitochondrial 2-enoyl thioester reductase (HsETR1) (Homo sapiens, UniProt Q9BV79).
T1 construct: gene MECR; isolated protein; construct and host not described in main text (assay details in Text S1); 1ZSY is the docked crystal structure
T1 sequence (Q9BV79 54-373): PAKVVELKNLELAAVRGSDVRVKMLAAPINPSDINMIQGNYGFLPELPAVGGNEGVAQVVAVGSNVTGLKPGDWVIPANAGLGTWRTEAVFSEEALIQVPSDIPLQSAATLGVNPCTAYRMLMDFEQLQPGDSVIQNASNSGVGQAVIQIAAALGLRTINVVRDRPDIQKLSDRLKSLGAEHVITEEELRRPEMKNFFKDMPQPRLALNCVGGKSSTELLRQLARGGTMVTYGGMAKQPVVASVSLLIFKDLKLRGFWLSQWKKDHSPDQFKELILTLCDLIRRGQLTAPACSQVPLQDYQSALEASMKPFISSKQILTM
Put plainly: enzyme inhibition assay (details in Text S1). Format: biochemical.

In experiment [2] the target is T2, T. brucei UDP-galactose 4′ epimerase (TbGalE) (Trypanosoma brucei, UniProt Q8T8E9).
T2 construct: gene galE; isolated protein; construct and host not described in main text (assay details in Text S1); 1GY8 is the docked crystal structure
T2 sequence (Q8T8E9 1-395): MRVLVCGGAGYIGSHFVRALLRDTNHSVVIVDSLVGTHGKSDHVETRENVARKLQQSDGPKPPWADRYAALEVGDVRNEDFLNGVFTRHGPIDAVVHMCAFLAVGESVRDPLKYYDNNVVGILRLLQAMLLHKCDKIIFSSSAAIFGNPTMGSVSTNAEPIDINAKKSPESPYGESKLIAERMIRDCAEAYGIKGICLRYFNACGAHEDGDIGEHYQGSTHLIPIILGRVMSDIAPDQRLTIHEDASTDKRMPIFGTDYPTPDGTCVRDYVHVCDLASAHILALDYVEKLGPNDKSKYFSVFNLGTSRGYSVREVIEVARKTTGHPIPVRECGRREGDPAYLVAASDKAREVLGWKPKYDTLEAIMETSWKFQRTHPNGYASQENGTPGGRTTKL
Put plainly: enzyme inhibition assay (details in Text S1). Format: biochemical.

In general, IC50 refers to the midpoint of a concentration-inhibition curve. Read a high IC50 as weaker potency in that assay. Turning to `O=S(=O)(O)c1cc(O)c2c(O)c(N=Nc3cccc4ccccc34)c(S(=O)(=O)O)cc2c1` [compound 1, 4,5-dihydroxy-3-(1-naphthyldiazenyl)-2,7-naphthalenedisulfonic acid], the IC50 in experiment [1] was ~33.5 µM; in experiment [2], 0.7 ± 0.2 µM.
